Measurements taken from PMC9166630, “SAR Probing of KX2-391 Provided Analogues With Juxtaposed Activity Profile Against Major Oncogenic Kinases” (Frontiers in Oncology, 2022).

Experiments:
Details in all cases: 4e 0.1 µM, HL60 lysate
Ret = target: T1, Ret (Homo sapiens, UniProt P07949); assay: PamChip tyrosine kinase microarray, Ret; assay type: biochemical
T1 construct: endogenous in cells; host or cells: HL60 lysate
Description: (§1) The changes in kinase activities induced by treatment with 4e were monitored within the HL60 cell lines using PamGene’s (Hertogenbosch, Netherlands) PamChip® peptide microarray profiler, which quantifies the activities of 144 tyrosine kinases (YK) ([29], [30]) (Figure 7). Results are provided as a log fold change (LFC) heatmap and Mean Kinase Statistic. From the LFC it is apparent that compound 4e, at a concentration of 0.1 µM, induced sizable changes to the activity of several kinases within the cell signaling YK profile (Figure 7A).
(§2) An Upstream Kinase tool was used to generate a putative list of kinases responsible for phosphorylating the phospho-sites on the PamChip (Figure 7B) ([31]). It is an interpretation and is highly dependent on the contents of the underlying phosphorylation databases. A Kinase Score was used for ranking kinases based on their significance and specificity in terms of the set of peptides used for the corresponding kinase. Kinase Statistics indicates the overall change of the peptide set that represents the kinase. Kinase statistics value <0 indicates lower kinase activity in the compound spiked lysate and vice versa ([32], [33]). Table 5 lists the 20 most changed kinases within treated HL60 cell lysates by 0.1 μM 4e, ranked according to their Kinase Score.
(§3) The compound 4e was spiked into HL60 cell lysate at different concentrations (0.001, 0.01, 0.1, 1, 10 and 50 μM). In addition, DMSO was also spiked in HL60 lysate at low concentration (2% v/v) as control. Samples were profiled on PamGene’s Tyrosine Kinase (PTK) arrays in technical replicates, covering a total of 196 phosphorylation sites. Frozen HL60 cultured cell pellet was sent to PamGene. At PamGene, cells were lysed using a lysis buffer and proteases inhibitors cocktail. Protein concentration was measured using standard Bradford assay as per PamGene SOPs. These lysates were further used for generating the PTK activity profiles. For spiking, 4e was received as powder form and dissolved in DMSO at PamGene facility followed by storing at -20°C in small aliquots. PamGene used its in-house bioinformatics toolbox in combination with other methods to generate hypotheses of signaling pathways.

ITK = target: T2, ITK (Homo sapiens, UniProt Q08881); assay: PamChip tyrosine kinase microarray, ITK; assay type: biochemical
T2 construct: endogenous in cells; host or cells: HL60 lysate
T2 sequence (Q08881 1-620): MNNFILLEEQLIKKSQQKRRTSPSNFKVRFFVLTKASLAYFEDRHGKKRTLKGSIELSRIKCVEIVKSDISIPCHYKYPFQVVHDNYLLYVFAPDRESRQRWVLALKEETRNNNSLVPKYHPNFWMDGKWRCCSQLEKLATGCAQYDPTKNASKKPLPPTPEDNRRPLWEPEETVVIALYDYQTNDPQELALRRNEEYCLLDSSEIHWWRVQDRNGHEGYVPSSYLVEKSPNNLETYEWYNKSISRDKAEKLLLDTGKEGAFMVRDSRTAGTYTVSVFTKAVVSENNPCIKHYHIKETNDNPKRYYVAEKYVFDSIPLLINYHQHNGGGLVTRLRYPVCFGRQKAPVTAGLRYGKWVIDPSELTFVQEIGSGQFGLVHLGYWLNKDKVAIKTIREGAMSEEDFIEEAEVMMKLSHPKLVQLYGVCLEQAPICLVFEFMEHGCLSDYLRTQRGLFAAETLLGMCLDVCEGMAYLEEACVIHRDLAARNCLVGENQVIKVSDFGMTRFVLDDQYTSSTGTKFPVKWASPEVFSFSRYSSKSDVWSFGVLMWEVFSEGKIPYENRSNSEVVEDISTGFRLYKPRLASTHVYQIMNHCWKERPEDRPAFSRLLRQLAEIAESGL
Description: as §1, §2, §3

CSK = target: T3, CSK (Homo sapiens, UniProt P41240); assay: PamChip tyrosine kinase microarray, CSK; assay type: biochemical
T3 construct: endogenous in cells; host or cells: HL60 lysate
T3 sequence (P41240 whole entry): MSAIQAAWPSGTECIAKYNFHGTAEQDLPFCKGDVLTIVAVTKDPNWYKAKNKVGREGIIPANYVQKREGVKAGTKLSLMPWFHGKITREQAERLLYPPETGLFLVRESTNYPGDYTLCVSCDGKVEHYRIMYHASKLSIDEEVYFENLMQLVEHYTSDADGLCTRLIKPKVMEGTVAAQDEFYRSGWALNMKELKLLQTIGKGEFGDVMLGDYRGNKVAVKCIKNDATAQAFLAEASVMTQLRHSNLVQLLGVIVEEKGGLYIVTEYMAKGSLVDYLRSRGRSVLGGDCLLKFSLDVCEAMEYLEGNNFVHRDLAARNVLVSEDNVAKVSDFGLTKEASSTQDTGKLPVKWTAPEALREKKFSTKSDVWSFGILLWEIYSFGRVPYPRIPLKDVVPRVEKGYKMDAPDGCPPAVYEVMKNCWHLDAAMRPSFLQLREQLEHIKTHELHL
Description: as §1, §2, §3

TEC = target: T4, TEC (Homo sapiens, UniProt P42680); assay: PamChip tyrosine kinase microarray, TEC; assay type: biochemical
T4 construct: endogenous in cells; host or cells: HL60 lysate
T4 sequence (P42680 1-631): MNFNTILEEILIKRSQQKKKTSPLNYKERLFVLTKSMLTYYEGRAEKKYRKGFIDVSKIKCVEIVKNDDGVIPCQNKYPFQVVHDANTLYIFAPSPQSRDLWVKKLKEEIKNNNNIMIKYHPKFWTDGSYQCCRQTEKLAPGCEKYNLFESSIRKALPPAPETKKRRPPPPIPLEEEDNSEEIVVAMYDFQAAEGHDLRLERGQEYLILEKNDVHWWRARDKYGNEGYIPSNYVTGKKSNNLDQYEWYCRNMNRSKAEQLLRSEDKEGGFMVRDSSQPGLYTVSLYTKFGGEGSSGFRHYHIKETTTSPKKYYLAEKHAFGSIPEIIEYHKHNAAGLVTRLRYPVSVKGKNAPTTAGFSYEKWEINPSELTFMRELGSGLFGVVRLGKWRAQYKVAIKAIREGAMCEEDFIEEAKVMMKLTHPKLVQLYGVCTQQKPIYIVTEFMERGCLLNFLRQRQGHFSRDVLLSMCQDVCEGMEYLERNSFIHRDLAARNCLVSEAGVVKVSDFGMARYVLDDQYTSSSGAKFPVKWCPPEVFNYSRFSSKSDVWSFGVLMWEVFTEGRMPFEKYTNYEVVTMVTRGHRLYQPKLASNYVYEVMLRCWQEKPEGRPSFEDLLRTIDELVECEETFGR
Description: as §1, §2, §3

Tyk2 = assay: PamChip tyrosine kinase microarray, Tyk2; assay type: biochemical, human
Description: as §1, §2, §3

Frk = assay: PamChip tyrosine kinase microarray, Frk; assay type: biochemical, human
Description: as §1, §2
The two multiple-kinase tests (PamChip and Phosphokinase Profiler) provided strong evidence of very minor involvement of Src in the cellular activities of 4e. However, the question must be raised about the effect of the 4e on other SRC family kinase (SFK). To address this point, we must highlight that both R&D phosphokinase profiler and PamChip feature Yes, Fgr, Lyn, Lck and Src while Fyn, Hck, Blk and Frk activities are tested in the PamChip only. The signals of SFKs in the R&D Phosphokinase Profiler were too weak to detect in both untreated (control) and 4e-treated HL60 cells. In PamChip assay, most of SFK’s were not ranked in the top 20 affected kinases (Table 5). In addition, their Specificity Score were very low (Table 6) indicating their marginal importance to the cell killing activities of 4e. Fgr kinase which ranked 7th in the list (Table 5) was the only SFK member that seems to be affected by the compound, albeit with low Specificity Score (1.03).
The compound 4e was spiked into HL60 cell lysate at different concentrations (0.001, 0.01, 0.1, 1, 10 and 50 μM). In addition, DMSO was also spiked in HL60 lysate at low concentration (2% v/v) as control. Samples were profiled on PamGene’s Tyrosine Kinase (PTK) arrays in technical replicates, covering a total of 196 phosphorylation sites. Frozen HL60 cultured cell pellet was sent to PamGene. […] Protein concentration was measured using standard Bradford assay as per PamGene SOPs. […]

T1 sequence (P07949 29-1114): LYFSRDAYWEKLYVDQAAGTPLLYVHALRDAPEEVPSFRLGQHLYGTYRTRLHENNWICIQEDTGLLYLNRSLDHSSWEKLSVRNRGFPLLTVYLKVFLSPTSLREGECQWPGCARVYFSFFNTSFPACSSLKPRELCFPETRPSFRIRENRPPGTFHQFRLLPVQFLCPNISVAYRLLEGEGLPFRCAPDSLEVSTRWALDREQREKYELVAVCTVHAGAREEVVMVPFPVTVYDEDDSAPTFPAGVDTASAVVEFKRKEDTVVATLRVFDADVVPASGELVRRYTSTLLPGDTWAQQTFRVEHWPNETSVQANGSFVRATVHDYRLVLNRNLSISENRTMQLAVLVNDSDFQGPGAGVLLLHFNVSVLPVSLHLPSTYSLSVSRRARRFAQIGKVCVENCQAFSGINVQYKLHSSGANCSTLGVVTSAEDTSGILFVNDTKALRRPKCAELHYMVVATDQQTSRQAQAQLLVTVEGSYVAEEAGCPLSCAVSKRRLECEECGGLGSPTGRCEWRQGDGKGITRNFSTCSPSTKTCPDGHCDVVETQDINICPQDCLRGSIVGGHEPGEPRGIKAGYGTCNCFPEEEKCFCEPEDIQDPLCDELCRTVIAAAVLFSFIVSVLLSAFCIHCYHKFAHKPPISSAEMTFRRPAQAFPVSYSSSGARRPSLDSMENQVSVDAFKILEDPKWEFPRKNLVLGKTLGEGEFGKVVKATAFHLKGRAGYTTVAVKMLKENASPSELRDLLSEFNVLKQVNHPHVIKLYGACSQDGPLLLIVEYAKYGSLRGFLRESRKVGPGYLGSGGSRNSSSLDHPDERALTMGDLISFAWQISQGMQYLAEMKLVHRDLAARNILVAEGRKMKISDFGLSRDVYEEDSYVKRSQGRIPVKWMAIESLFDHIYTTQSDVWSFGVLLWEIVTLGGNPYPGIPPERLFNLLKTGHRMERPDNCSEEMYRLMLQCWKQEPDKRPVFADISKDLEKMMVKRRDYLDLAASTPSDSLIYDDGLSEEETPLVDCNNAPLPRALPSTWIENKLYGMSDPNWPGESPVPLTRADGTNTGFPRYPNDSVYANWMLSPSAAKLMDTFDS

O=C(Cc1ccc(NC(=O)c2cccc(Cl)c2)cc1)NCc1ccccc1 [Compound 4e, N-(4-(2-(benzylamino)-2-oxoethyl)phenyl)-3-chlorobenzamide]
Mean Final Score (Ret): 2.3893
Mean Kinase Statistic (Ret): -0.7112
Mean Significance Score (Ret): 1.0953
Mean Specificity Score (Ret): 1.2940
Mean Final Score (ITK): 1.9173
Mean Kinase Statistic (ITK): -0.5666
Mean Significance Score (ITK): 1.0723
Mean Specificity Score (ITK): 0.8451
Mean Final Score (CSK): 1.9356
Mean Kinase Statistic (CSK): -0.5346
Mean Significance Score (CSK): 1.2107
Mean Specificity Score (CSK): 0.7249
Mean Final Score (TEC): 1.9733
Mean Kinase Statistic (TEC): -0.5256
Mean Significance Score (TEC): 1.3350
Mean Specificity Score (TEC): 0.6383
Mean Final Score (Tyk2): 1.7035
Mean Kinase Statistic (Tyk2): -0.6710
Mean Significance Score (Tyk2): 1.1411
Mean Specificity Score (Tyk2): 0.5624
Mean Final Score (Frk): 1.6587
Mean Kinase Statistic (Frk): -0.5116
Mean Significance Score (Frk): 1.1484
Mean Specificity Score (Frk): 0.5102
